Consider nine compounds from paper PMC8586704 (Frontiers in Chemistry, 2021).

Data set [1] has as its system HepG2. The experiment in a line: cells. Type of data set: cell-based. As to conditions: Homo sapiens, hepatocellular carcinoma cell line.
For data set [2], the system named is MCF-7. The experiment in a line: cells. Format: cell-based. As to conditions: Homo sapiens, MCF7; breast adenocarcinoma cell line.
Data set [3] concerns Huvec-12. The experiment in a line: Cytotoxicity assay (CCK-8). Type of data set: cell-based. The conditions noted are these: normal human umbilical vein endothelial cell line.
Data set [4] deals with L02. The experiment in a line: cells. As to conditions: normal human hepatic cell line. Type of data set: cell-based.
Data set [5] relates to M. tuberculosis H37Rv. The experiment in a line: Antitubercular activity assay, broth dilution, auto-luminescent strain. Type of data set: cell-based, Mycobacterium tuberculosis. For orientation: In broth dilution the organism is exposed to a series of concentrations in liquid medium.
Data set [6] deals with HCT116. The experiment in a line: cells. Format: cell-based. As to conditions: Homo sapiens, HCT-116; colon cancer cell line.
Data set [7] has as its system HeLa. The experiment in a line: cells. Type of data set: cell-based. As to conditions: Homo sapiens, cervical carcinoma cell line.
Data set [8] relates to A549. The experiment in a line: Cytotoxicity assay (CCK-8). As to conditions: Homo sapiens, lung cancer cell line. Type of data set: cell-based.
The subject of data set [9] is five human cancer cell lines and two normal cell lines. The experiment in a line: cells.
Data set [10] shares this test system. The conditions noted are these: MCF-7, A549, HCT116, L02.
For data set [11], the system named is M. tuberculosis H37Rv. More on the design: method as in Ma et al., 2017. As to conditions: ref Ma et al., 2017; cited from earlier work.
Setting [12] is: Mycobacterium tuberculosis, H37RV, Day 7th, read-out: MICs against H37Rv, Day 7th.
Setting [13] is: Mycobacterium tuberculosis, H37RV, Day 14th, read-out: MICs against H37Rv, Day 14th.
Where [14] appears, read: Mycobacterium tuberculosis, H37RV, read-out: MICs against H37Rv, Day 3rd.
Setting [15] is: Mycobacterium tuberculosis, H37RV, read-out: MICs against H37Rv, Day 7th.
[16] abbreviates: Mycobacterium tuberculosis, H37RV, read-out: MICs against H37Rv, Day 14th.
Setting [17] is: Mycobacterium tuberculosis, H37RV, Day 3rd, read-out: MICs against H37Rv, Day 3rd.

≈ marks a conversion by molar mass, not a printed value. Like-named read-outs stand apart in the source and are kept apart here. Starred links: 1 amine or outer side, 2 acyl side, 3 side chain; linkers in the order of their positions; H or OH if unused. Non-standard residues stand in square brackets, D forms with d. Residues, ends and D or L forms follow the SMILES beside them. *: point of attachment. X8 = O=C(CCc1c[nH]c2ccccc12)Oc1ccc(C[C@H](N[*:1])C(=O)[*:2])cc1[N+](=O)[O-]; X2 = COC(=O)[C@@H](NC(=O)[C@@H](C)C[C@@H](C(=O)[*:2])N(C)[*:1])[C@@H](C)O; X3 = O=C(Cc1ccc(F)cc1)Oc1ccc(C[C@H](N[*:1])C(=O)[*:2])cc1[N+](=O)[O-]; X13 = C[C@@H](C[C@@H](C(=O)[*:2])N(C)[*:1])C(=O)NCc1ccc(C(F)(F)F)cc1; Trp(1-(1,1-Me2-allyl)) = C=CC(C)(C)n1cc(C[C@H](N)C(=O)O)c2ccccc21; X5 = O=C(Oc1ccc(C[C@H](N[*:1])C(=O)[*:2])cc1[N+](=O)[O-])c1cnccn1; NMeGlu(4S-Me) = C[C@@H](C[C@@H](C(=O)[*:2])N(C)[*:1])C(=O)[*:3]; X6 = C[C@@H](C[C@@H](C(=O)[*:2])N(C)[*:1])C(=O)NNC(=O)c1ccncc1; X9 = CSCCC(=O)Oc1ccc(C[C@H](N[*:1])C(=O)[*:2])cc1[N+](=O)[O-]; Tyr(3-NO2) = N[C@@H](Cc1ccc(O)c([N+](=O)[O-])c1)C(=O)O; X7 = O=C1O[C@@H](CN*)CN1c1ccc(N2CCOCC2)c(F)c1; Gly(E-crotyl) = C/C=C/C[C@H](N)C(=O)O; NMeL = CN[C@@H](CC(C)C)C(=O)O

Take `C=CC(C)(C)n1cc(C[C@@H]2NC(=O)[C@H](C/C=C/C)NC(=O)[C@H](CC(C)C)NC(=O)[C@H](C[C@H](C)C(=O)N[C@H](C(=O)OC)[C@@H](C)O)N(C)C(=O)[C@H](C)NC(=O)[C@H](Cc3ccc(O)c([N+](=O)[O-])c3)NC(=O)[C@H](CC(C)C)N(C)C2=O)c2ccccc21` [Compound 1, ilamycin NJL1] (cyclo(A[X2]L[Gly(E-crotyl)][Trp(1-(1,1-Me2-allyl))][NMeL][Tyr(3-NO2)])): the IC50 in [1] was 17.7 µM; in data set [2], 9 µM; in data set [3] it was 10.3 µM; in data set [4], 6.5 µM; in data set [6], 7.2 µM; in data set [7], 11.3 µM. Also, the IC50 in data set [8] was 5.7 µM; in data set [9] (read-out: IC50 against MCF-7, A549, HCT116, and L02), 5.7 to 9 µM; in data set [9] (read-out: IC50 against five human cancer cell lines and two normal cell lines), 5.7 to 11.3 µM. For the same compound, the MIC is 1.7 µM (≈ 1.97 µg/mL) in [5] (Day 14th, read-out: MICs against H37Rv, Day 14th); 1.7 µM (≈ 1.97 µg/mL) in data set [5] (setting [12]); 1.6 to 1.7 µM (≈ 1.85 to 1.97 µg/mL) in data set [5] (setting [13]). Besides, the “promotion of cytotoxicity compared with ilamycin F” value in data set [10] was 3–8 fold.

Take `C=CC(C)(C)n1cc(C[C@@H]2NC(=O)[C@H](C/C=C/C)NC(=O)[C@H](CC(C)C)NC(=O)[C@H](C[C@H](C)C(=O)NCc3ccc(C(F)(F)F)cc3)N(C)C(=O)[C@H](C)NC(=O)[C@H](Cc3ccc(O)c([N+](=O)[O-])c3)NC(=O)[C@H](CC(C)C)N(C)C2=O)c2ccccc21` [Compound 12, ilamycin NJL12] (cyclo(A[X13]L[Gly(E-crotyl)][Trp(1-(1,1-Me2-allyl))][NMeL][Tyr(3-NO2)])): the IC50 in data set [1], in data set [2], in data set [3], in data set [4], in data set [6] and in data set [7] was above 50 µM each time. In data set [8], this compound displayed a half-inhibitory concentration (IC50) above 50 µM. The MIC in data set [5] (setting [14]), in [5] (setting [15]) and in data set [5] (setting [16]) was above 100 µM in each case.

On to `C=CC(C)(C)n1cc(C[C@@H]2NC(=O)[C@H](C/C=C/C)NC(=O)[C@H](CC(C)C)NC(=O)[C@H](C[C@H](C)C(=O)NNC(=O)c3ccncc3)N(C)C(=O)[C@H](C)NC(=O)[C@H](Cc3ccc(O)c([N+](=O)[O-])c3)NC(=O)[C@H](CC(C)C)N(C)C2=O)c2ccccc21` [Compound 13, ilamycin NJL13] (cyclo(A[X6]L[Gly(E-crotyl)][Trp(1-(1,1-Me2-allyl))][NMeL][Tyr(3-NO2)])), for which the IC50 in data set [1], in data set [2], in [3], in data set [4], in [6] and in data set [7] was above 50 µM in each case. Besides, the IC50 in data set [8] is above 50 µM. Moreover, the MIC in [5] (setting [14]), in data set [5] (setting [15]) and in data set [5] (setting [16]) was 27.6 µM (≈ 32.1 µg/mL) each time.

Consider `C=CC(C)(C)n1cc(C[C@@H]2NC(=O)[C@H](C/C=C/C)NC(=O)[C@H](CC(C)C)NC(=O)[C@H](C[C@H](C)C(=O)NC[C@H]3CN(c4ccc(N5CCOCC5)c(F)c4)C(=O)O3)N(C)C(=O)[C@H](C)NC(=O)[C@H](Cc3ccc(O)c([N+](=O)[O-])c3)NC(=O)[C@H](CC(C)C)N(C)C2=O)c2ccccc21` [Compound 14, ilamycin NJL14] (cyclo(A[NMeGlu(4S-Me)](X7)L[Gly(E-crotyl)][Trp(1-(1,1-Me2-allyl))][NMeL][Tyr(3-NO2)])), for which the IC50 in data set [1], in data set [2], in [3], in data set [4], in data set [6] and in data set [7] was above 50 µM throughout. For the same compound, in data set [8], the IC50 was above 50 µM. Besides, the MIC in data set [5] (setting [14]), in data set [5] (setting [15]) and in [5] (setting [16]) was 48.5 µM (≈ 64 µg/mL) throughout.

Regarding `C=CC(C)(C)n1cc(C[C@@H]2NC(=O)[C@H](C/C=C/C)NC(=O)[C@H](CC(C)C)NC(=O)[C@H](C[C@H](C)C(=O)O)N(C)C(=O)[C@H](C)NC(=O)[C@H](Cc3ccc(OC(=O)c4cnccn4)c([N+](=O)[O-])c3)NC(=O)[C@H](CC(C)C)N(C)C2=O)c2ccccc21` [Compound 15, ilamycin NJL15] (cyclo(A[NMeGlu(4S-Me)]L[Gly(E-crotyl)][Trp(1-(1,1-Me2-allyl))][NMeL][X5])), the IC50 in data set [1], in data set [2], in data set [3], in data set [4], in data set [6] and in data set [7] was above 50 µM throughout. Moreover, the IC50 in data set [8] was above 50 µM. Moreover, the MIC in data set [5] (setting [17]), in data set [5] (setting [12]) and in [5] (setting [13]) was 27.9 µM (≈ 32 µg/mL) each time.

For the compound `C=CC(C)(C)n1cc(C[C@@H]2NC(=O)[C@H](C/C=C/C)NC(=O)[C@H](CC(C)C)NC(=O)[C@H](C[C@H](C)C(=O)O)N(C)C(=O)[C@H](C)NC(=O)[C@H](Cc3ccc(OC(=O)CCc4c[nH]c5ccccc45)c([N+](=O)[O-])c3)NC(=O)[C@H](CC(C)C)N(C)C2=O)c2ccccc21` [Compound 16, ilamycin NJL16] (cyclo(A[NMeGlu(4S-Me)]L[Gly(E-crotyl)][Trp(1-(1,1-Me2-allyl))][NMeL][X8])), the IC50 in data set [1], in data set [2], in data set [3], in data set [4], in data set [6] and in data set [7] was above 50 µM throughout. This compound also showed an IC50 in data set [8] above 50 µM. The MIC in data set [5] (setting [17]), in data set [5] (setting [12]) and in data set [5] (setting [13]) was 26.4 µM (≈ 32 µg/mL) each time.

For `C=CC(C)(C)n1cc(C[C@@H]2NC(=O)[C@H](C/C=C/C)NC(=O)[C@H](CC(C)C)NC(=O)[C@H](C[C@H](C)C(=O)O)N(C)C(=O)[C@H](C)NC(=O)[C@H](Cc3ccc(OC(=O)Cc4ccc(F)cc4)c([N+](=O)[O-])c3)NC(=O)[C@H](CC(C)C)N(C)C2=O)c2ccccc21` [Compound 17, ilamycin NJL17] (cyclo(A[NMeGlu(4S-Me)]L[Gly(E-crotyl)][Trp(1-(1,1-Me2-allyl))][NMeL][X3])), the IC50 in data set [1], in data set [2], in data set [3], in data set [4], in data set [6] and in [7] was above 50 µM throughout. In [8], this compound returned an IC50 above 50 µM. Further, the MIC in [5] (setting [17]), in data set [5] (setting [12]) and in data set [5] (setting [13]) was 27.2 µM (≈ 32.1 µg/mL) each time.

Take `C=CC(C)(C)n1cc(C[C@@H]2NC(=O)[C@H](C/C=C/C)NC(=O)[C@H](CC(C)C)NC(=O)[C@H](C[C@H](C)C(=O)O)N(C)C(=O)[C@H](C)NC(=O)[C@H](Cc3ccc(OC(=O)CCSC)c([N+](=O)[O-])c3)NC(=O)[C@H](CC(C)C)N(C)C2=O)c2ccccc21` [Compound 18, ilamycin NJL18] (cyclo(A[NMeGlu(4S-Me)]L[Gly(E-crotyl)][Trp(1-(1,1-Me2-allyl))][NMeL][X9])): the IC50 in data set [1], in data set [2], in data set [3], in data set [4], in data set [6] and in data set [7] was above 50 µM each time. Moreover, the IC50 in data set [8] is above 50 µM. Further, the MIC in data set [5] (setting [17]), in [5] (setting [12]) and in data set [5] (setting [13]) was 28 µM (≈ 32 µg/mL) throughout.

Turning to `C=CC(C)(C)n1cc(C[C@@H]2NC(=O)[C@H](C/C=C/C)NC(=O)[C@H](CC(C)C)NC(=O)[C@H](C[C@H](C)C(=O)O)N(C)C(=O)[C@H](C)NC(=O)[C@H](Cc3ccc(O)c([N+](=O)[O-])c3)NC(=O)[C@H](CC(C)C)N(C)C2=O)c2ccccc21` [ilamycin F, reference compound] (cyclo(A[NMeGlu(4S-Me)]L[Gly(E-crotyl)][Trp(1-(1,1-Me2-allyl))][NMeL][Tyr(3-NO2)])), the IC50 in data set [1] was above 50 µM; in data set [2], 32.2 µM; in [3], 46.1 µM; in [4] it was 43.9 µM; in [6], 44.8 µM; in [7], 31 µM. The IC50 in [8] stood at 47 µM. In addition, in data set [11], the “MIC against M. tuberculosis H37Rv” value was 1.2 µM (≈ 1.25 µg/mL). Also, the MIC worked out at 30.7 µM (≈ 32 µg/mL) in [5] (setting [17]), 15.4 µM (≈ 16.1 µg/mL) in [5] (setting [12]) and 1.9 µM (≈ 1.98 µg/mL) in data set [5] (setting [13]).

The IC50 is the concentration needed to halve the response being measured.
